Measurements reported in patent US20170106058A1, “PHARMACEUTICAL COMPOSITION AGAINST CHRONIC BACTERIAL INFECTIONS” (Lysando AG, priority 2014, published 2017).

Tests used:
[1] = test system: P. aeruginosa PA14 persisters; test: Persister killing assay, isolated persister fraction of P. aeruginosa PA14; assay type: cell-based
Description: (§1) Persister killing—Planktonic persister cells were isolated from a stationary phase culture as described e.g. in Chen et al., 2011(Chen X, Zhang M, Zhou C, Kallenbach N R, Ren D. 2011. Control of bacterial persister cells by Trp/Arg-containing antimicrobial peptides. Appl Environ Microbiol 77:4878-4885.). Briefly, an overnight culture of P. aeruginosa PA14 and PA1255 (a cystic fibrosis isolate) was inoculated each in 50 ml 1:20 Trypticase Soy Broth (TSB). After 48 h of growth at 37° C., the culture was treated with ofloxacin at a final concentration of 10 μg/ml (5× MIC) for 5 hours at 37° C., while shaking at 200 rpm. The persister cells surviving this antibiotic treatment were isolated by centrifugation (5250 g, 15 min, 4° C.) and the cell pellet was washed twice with 20 mM HEPES buffer. Prior to treatment, cells were resuspended in the same volume of 20 mM HEPES buffer. A persister killing assay was performed as described e.g. by De Groote et al., 2009 (De Groote V N, Verstraeten N, Fauvart M, Kint C I, Verbeeck A M, Beullens S, Cornelis P, Michiels J. 2009. Novel persistence genes in Pseudomonas aeruginosa identified by high-throughput screening. FEMS Microbiol Lett 297:73-79). Briefly, a volume of 100 μl of the isolated persister fraction was mixed with polypeptides comprising peptidoglycan hydrolase or ciprofloxacin (final concentrations of 10× or 30× MIC against the respective strains), in the absence or presence of 0.5 mM EDTA-Na2 (final concentration) up to a final volume of 200 μl. Control treatments with 20 mM HEPES buffer, 0.5 mM EDTA or ofloxacin (30×and 10× MIC) were performed in parallel. The mixtures were shaken (200 rpm) for lh at 37° C. Treated persisters where washed twice with 20 mM HEPES buffer and appropriate dilutions were plated on TSB agar plates and incubated at 37° C. The number of persisters was determined after 72 h incubation to allow complete resuscitation of all surviving persisters. Each experiment was independently repeated at least 3 times.
(§2) Planktonic persister cells were isolated from a stationary-phase culture as described previously (Liebens V, Defraine V, Van der Leyden A, De Groote V N, Fierro C, Beullens S, Verstraeten N, Kint C, Jans A, Frangipani E, Visa P, Marchal K, Versées W, Fauvart M, Michiels J. 2014. A putative de-N-acetylase of the PIG-L superfamily affects fluoroquinolone tolerance in Pseudomonas aeruginosa. Pathogen. Dis. 71:39-54.) with minor modifications. An overnight culture of P. aeruginosa PA14, PAl255 (a cystic fibrosis isolate), Escherichia coil UTI-89 (isolate from chronic urinary tract infection) and Acinetobacter baumannii RUH134 (reference strain for global clone 2) was diluted 100×in 50 ml 1:20 Trypticase soy broth (TSB). After overnight growth at 37° C., the cultures were treated with either 10 μg/ml ofloxacin (P. aeruginosa strains), 200 μg/ml tobramycin (A. baumannii) or 200 μg/ml amikacin (E. coli) for 5 h at 37° C., while shaking at 200 rpm. The antibiotic concentrations were chosen to allow only persister cells to survive, based on previous time-kill curves. The persister fractions were isolated by centrifugation (5,250× g for 15 min at 4° C.), and the cell pellet was washed twice with 20 mM HEPES (pH 7.4). Prior to treatment, the cells were resuspended in a ten-fold reduced volume of 20 mM HEPES (pH 7.4) to concentrate the persisters.
A persister killing assay was performed as described previously (Liebens et al., 2014), with minor modifications. […]

[2] = test system: P. aeruginosa PAl255 persisters; test: Persister killing assay, isolated persister fraction of P. aeruginosa PAl255 (cystic fibrosis isolate); assay type: cell-based
Description: as §1, with “Briefly, a volume of 100 μl of the isolated persister fraction was mixed with polypeptides comprising peptidoglycan hydrolase or ciprofloxacin (final concentrations of 10× or 30× MIC against the respective strains), in the absence or presence of 0.5 mM EDTA-Na2 (final concentration) up to a final volume of 200 μl. Control treatments with 20 mM HEPES buffer, 0.5 mM EDTA or ofloxacin (30×and 10× MIC) were performed in parallel. The mixtures were shaken (200 rpm) for lh at 37° C. Treated persisters where washed twice with 20 mM HEPES buffer and appropriate dilutions were plated on TSB agar plates and incubated at 37° C.” left out, “Each experiment was independently repeated at least 3 times.” left out

[3] = test system: E. coli UTI-89 persisters; test: Persister killing assay, isolated persister fraction of E. coli UTI-89 (chronic urinary tract infection isolate); assay type: cell-based, Escherichia coli; settings: 10× MIC
Source text: as §2
A persister killing assay was performed as described previously (Liebens et al., 2014), with minor modifications. A volume of 100 μl of the isolated persister fraction was mixed with either the polypeptide according to SEQ ID NO: 124, 125, 126 or ciprofloxacin (final concentrations of 10× or 30× MIC against the respective strains), in the absence or presence of 0.5 mM EDTA-Na2 (final concentration) up to a final volume of 200 μl. Control treatments with 20 mM HEPES (pH 7.4), 0.5 mM EDTA, or ofloxacin/tobramycin/amikacin (30× and 10× MIC) were performed in parallel. […] The number of persisters was determined after 72 h of incubation to allow for complete resuscitation of all surviving persisters.

[4] = 10× and 30× MIC, with and without 0.5 mM EDTA

Molecule: O=C([O-])CN(CCN(CC(=O)[O-])CC(=O)O)CC(=O)O.[Na+].[Na+] [EDTA, reference compound]
- bactericidal activity against isolated persisters ([1]; 0.5 mM EDTA alone): did not affect the persisters
- bactericidal activity against isolated persisters ([2]; 0.5 mM EDTA alone): did not affect the persisters

Molecule: O=C(O)c1cn(C2CC2)c2cc(N3CCNCC3)c(F)cc2c1=O [ciprofloxacin, reference compound]
- bactericidal activity against isolated persisters [1, 4]: did not affect the persisters
- bactericidal activity against isolated persisters [2, 4]: did not affect the persisters
- killing of persisters ([3]; with and without 0.5 mM EDTA): did not completely kill persisters

B1: SEQ ID NO: 124: polypeptide comprising a fusion of Sarcotoxin IA (SEQ ID NO: 48) and KZ144 (SEQ ID NO: 11), active against vegetative cells of E. coli (protein)
chain: MKFFRKLKKSVKKRAKEFFKKPRVIGVSIPFGSKVLRKGDRGDEVCQLQTLLNLCGYDVGKPDGIFGNNTFNQVVKFQKDNCLDSDGIVGKNTWAELFSKYSPPIPYKTIPMPTANKSRAAATPVMNAVENATGVRSQLLLTFASIESAFDYEIKAKTSSATGWFQFLTGTWKTMIENYGMKYGVLTDPTGALRKDPRISALMGAELIKENMNILRPVLKREPTDTDLYLAHFFGPGAARRFLTTGQNELAATHFPKEAQANPSIFYNKDGSPKTIQEVYNLMDGKVAAHRKLEHHHHHH
modifications: SarcotoxinIA-KZ144his
- effect on persisters ([1]; 30× MIC, with 0.5 mM EDTA): complete eradication
- reduction of the number of persisters ([1]; 30× MIC, with 0.5 mM EDTA): approximately 5 log units
- reduction of the number of persisters in comparison to the 0.5 mM EDTA control ([1]; 30× MIC, without EDTA): approximately 2.3 log units
- killing of persisters ([3]; with 0.5 mM EDTA): completely eradicated
- killing of persisters ([3]; without 0.5 mM EDTA): did not completely kill persisters
